Experimental data: patent US9193717B2, “Mineralocorticoid receptor antagonists” (Merck Sharp & Dohme Corp., priority 2011, dated 2015)

What follows are molecules tested against T1, full-length human Mineralocorticoid Receptor (MR) (Homo sapiens, UniProt P08235) (assay: human MR NH Pro assay (PathHunter Protein:Protein interaction assay, MR antagonism)). Details: PathHunter CHO-K1 cells that overexpress human MR; aldosterone (0.3 nM), 6 hours at 37° C.; antagonist mode; read-out: IC50 rating.
T1 construct: full-length human Mineralocorticoid Receptor (MR); host or cells: PathHunter CHO-K1 cells
T1 sequence (P08235 1-984): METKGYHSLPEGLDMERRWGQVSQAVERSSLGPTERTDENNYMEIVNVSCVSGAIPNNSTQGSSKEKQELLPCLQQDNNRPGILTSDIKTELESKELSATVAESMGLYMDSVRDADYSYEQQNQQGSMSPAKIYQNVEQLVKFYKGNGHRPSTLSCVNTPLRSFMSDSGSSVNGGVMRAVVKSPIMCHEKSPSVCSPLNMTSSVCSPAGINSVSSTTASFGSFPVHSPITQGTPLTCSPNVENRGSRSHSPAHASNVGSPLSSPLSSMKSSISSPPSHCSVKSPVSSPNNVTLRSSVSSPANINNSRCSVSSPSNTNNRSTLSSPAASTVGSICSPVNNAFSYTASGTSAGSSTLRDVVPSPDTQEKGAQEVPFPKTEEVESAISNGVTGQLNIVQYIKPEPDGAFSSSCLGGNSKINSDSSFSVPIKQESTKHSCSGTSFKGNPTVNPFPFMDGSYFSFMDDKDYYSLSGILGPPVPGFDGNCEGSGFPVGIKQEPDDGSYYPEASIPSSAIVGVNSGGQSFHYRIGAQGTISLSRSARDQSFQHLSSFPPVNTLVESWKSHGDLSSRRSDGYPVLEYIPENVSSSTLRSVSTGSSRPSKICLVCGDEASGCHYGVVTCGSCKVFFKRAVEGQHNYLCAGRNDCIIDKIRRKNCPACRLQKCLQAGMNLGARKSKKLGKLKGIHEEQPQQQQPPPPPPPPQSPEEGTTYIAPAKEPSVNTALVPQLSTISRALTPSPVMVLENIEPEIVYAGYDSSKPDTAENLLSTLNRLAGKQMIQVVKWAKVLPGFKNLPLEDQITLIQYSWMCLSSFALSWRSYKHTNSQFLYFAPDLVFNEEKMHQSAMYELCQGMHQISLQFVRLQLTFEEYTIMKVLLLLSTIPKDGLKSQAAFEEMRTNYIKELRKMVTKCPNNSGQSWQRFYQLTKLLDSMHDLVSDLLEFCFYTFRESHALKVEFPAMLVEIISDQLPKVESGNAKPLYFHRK
Assay type: cell-based
Experimental: The activity of the compounds of the present invention regarding mineralocorticoid receptor antagonism was evaluated using the following assay.
Assessment of Mr Potency in HMR NH Pro Assay
The human MR NH Pro assay is a commercially available PathHunter™ Protein:Protein interaction assay (DiscoveRx; http://www.discoverx.com/nhrs/prod-nhrs.php) that measures the ability of compounds to antagonize full-length human Mineralocorticoid Receptor (MR) binding to a coactivator peptide. PathHunter™ CHO—K1 cells that overexpress human MR (Cat #93-0456C2, Lot No: 09B0913) were cultured in growth media (F12K w/Glutamine and phenol red (Gibco 11765-047) supplemented with 10% HI FBS (Gibco 16000); 0.25 mg/ml Hygromycin in PBS (Invitrogen 10687-010, 50 mg/ml); 100 I.U./mL and 100 μg/mL Pen/Strep (Gibco 15140-122); 0.6 mg/mL Geneticin).
Compounds were assessed for MR antagonist activity by incubating the cells with a titrating dose of compound in F12K w/Glutamine and phenol red culture media (Invitrogen 11765-047) supplemented with 1% Charcoal/Dextran Treated FBS (Hyclone #SH30068.01) and aldosterone (0.3 nM) for 6 hours at 37° C. […] Growth Media: • F12K w/Glutamine and phenol red (Gibco 11765-047) • 10% HI FBS (Gibco 16000) • 0.25 mg/ml Hygromycin in PBS (Invitrogen 10687-010, 50 mg/ml) • 100 I.U./mL and 100 μg/mL Pen/Strep (Gibco 15140-122) • 0.6 mg/mL Geneticin (Gibco 10131, 50 mg/ml) • 2. Assay Media: • F12K w/Glutamine and phenol red (Invitrogen 11765-047) • 1% Charcoal/Dextran Treated FBS (Hyclone #SH30068.01) • 3. 3× PathHunter Detection Reagents (Cat#93-0001) (need ˜6 ml/plate). […] Control Agonist:Aldosterone:Sigma cat# A9477 • Prepare stock solution-10 μM in DMSO kept at −20° C. • for assay, dilute in assay media to 1.8 or 6 nM (6× of final concentration=about 0.3 nM to about 1.0 nM) • 5. Cell line: PathHunter CHO—K1 MR cells Cat #93-0456C2, Lot No: 09B0913, from operation liquid nitrogen stock. • 6. Control Antagonist:Spironolactone:Sigma #S-3378 and Eplerenone Sigma #107724-20-9 (10 mM stock concentration also prepared in DMSO and stored at −20° C.). • Methods: • Assay Set up and Calculations: • 1. Cells were grown in F12+FBS+Hygromycin+pen/strep+Genetin • 2. Cells were collected with 0.05% trypsin and the cell suspension was spun and resuspended in a volume of F12+1.5% CD-FBS and counted. • 3. The cells were resuspended to 4×10^5 cells/mL. • 4. Cells were (25 μL/well) added to the wells of a 384 well plate. • 5. The plate was then incubated at 37° C. over night in a humidified incubator with 5% CO2. • 6. Test compounds were titrated starting at 4.4 mM, 10-point titration in 1:3 dilution. • 7. Aldosterone was diluted in assay media to 1.8 nM or 6 nM from 10 μM stock (final concentration to be about 0.3 nM to about 1.0 nM). • Protocol for 384 Well Plate Format: 6 Hr Treatment: • 1. Plated 10K exponentially growing cells/well (25 μL) resuspended in assay media to each well using the Multidrop (Thermo Electron) (use white wall, clear bottom assay plates (Costar #3570) and incubate overnight at 37° C., 5% CO2. • 2. 0.25 μL 120× test compound (final DMSO concentration should be <1%) was added to each well n=2, 10 point titrations starting at 36.7 μM final concentration. • 3. 5 μL 6× agonist (final aldosterone concentration should be about 0.3 nM to about 1.0 nM) was added to all wells using the PlateMate Plus.
(ThermoFisher) (except those wells in columns 23 and 24) • 4. 5 μL of assay media was added to all wells in column 23 and 24. • 5. Plates were incubated 6 hrs at 37° C., 5% CO2. • 6. 15 μL 3× DiscoveRx detection reagent was added to each well. • 7. Plates were incubated for 1 hour at room temperature (plates stored in the dark). • 8. Plates were read on Envision (PerkinElmer) luminesence plate reader and analyzed using ADA.
For `C[C@H](c1ccc(F)cc1)N1C(=O)O[C@](Cc2ccccc2)(c2nc3c(Cl)cccc3[nH]2)C1=O` [Compound 20, 5-Benzyl-5-(4-chloro-1H-benzimidazol-2-yl)-3-[(1R)-1-(4-fluorophenyl)ethyl]-1,3-oxazolidine-2,4-dione], the IC50 was 100 to 500 nM. For `CNC(=O)c1ccc2[nH]c([C@@]3(Cc4ccccc4)OC(=O)N([C@H](C)c4ccc(F)cc4)C3=O)nc2c1` [Compound 21, Methyl 2-{(5R)-5-benzyl-3-[(1R)-1-(4-fluorophenyl)ethyl]-2,4-dioxo-1,3-oxazolidin-5-yl}-1H-benzimidazole-5-carboxamide], the IC50 was 100 to 500 nM. Molecule `C[C@H](c1ccc(F)cc1)N1C(=O)O[C@](Cc2ccccc2)(c2nc3cc(-c4cncnc4)ccc3[nH]2)C1=O` [Compound 22, (5R)-5-Benzyl-3-[(1R)-1-(4-fluorophenyl)ethyl]-5-(5-pyrimidin-5-yl-1H-benzimidazol-2-yl)-1,3-oxazolidine-2,4-dione] has an IC50 of under 100 nM. Molecule `Cc1noc(C)c1-c1ccc2[nH]c([C@@]3(Cc4ccccc4)OC(=O)N([C@H](C)c4ccc(F)cc4)C3=O)nc2c1` [Compound 23, (5R)-5-Benzyl-5-[5-(3,5-dimethylisoxazol-4-yl)-1H-benzimidazol-2-yl]-3-[(1R)-1-(4-fluorophenyl)ethyl]-1,3-oxazolidine-2,4-dione] has an IC50 of under 100 nM. In the case of `C[C@H](c1ccc(F)cc1)N1C(=O)O[C@](Cc2ccccc2)(c2nc3cc(-c4cnn(C)c4)ccc3[nH]2)C1=O` [Compound 24, (5R)-5-Benzyl-3-[(1R)-1-(4-fluorophenyl)ethyl]-5-[5-(1-methyl-1H-pyrazol-4-yl)-1H-benzimidazol-2-yl]-1,3-oxazolidine-2,4-dione], the IC50 is reported as under 100 nM. With `C[C@H](c1ccc(F)cc1)N1C(=O)O[C@](Cc2ccccc2)(c2nc3cc(-c4cccnc4)ccc3[nH]2)C1=O` [Compound 25, (5R)-5-Benzyl-3-[(1R)-1-(4-fluorophenyl)ethyl]-5-(5-pyridin-3-yl-1H-benzimidazol-2-yl)-1,3-oxazolidine-2,4-dione] the IC50 was under 100 nM. Work on `C[C@H](c1ccc(F)cc1)N1C(=O)O[C@](Cc2ccccc2)(c2nc3cc(-c4cn[nH]c4)ccc3[nH]2)C1=O` [Compound 26, (5R)-5-Benzyl-3-[(1R)-1-(4-fluorophenyl)ethyl]-5-[5-(1H-pyrazol-4-yl)-1H-benzimidazol-2-yl]-1,3-oxazolidine-2,4-dione] yielded an IC50 of under 100 nM. In the case of `C[C@H](c1ccc(F)cc1)N1C(=O)O[C@](Cc2ccccc2)(c2nc3cc(-c4cc[nH]n4)ccc3[nH]2)C1=O` [Compound 27, (5R)-5-Benzyl-3-[(1R)-1-(4-fluorophenyl)ethyl]-5-[5-(1H-pyrazol-5-yl)-1H-benzimidazol-2-yl]-1,3-oxazolidine-2,4-dione], the IC50 is reported as 100 to 500 nM. `C[C@H](c1ccc(F)cc1)N1C(=O)O[C@](Cc2ccccc2)(c2nc3cc(-c4cncc(F)c4)ccc3[nH]2)C1=O` [Compound 28, (5R)-5-Benzyl-3-[(1R)-1-(4-fluorophenyl)ethyl]-5-[5-(5-fluoro-pyridin-3-yl)-1H-benzimidazol-2-yl]-1,3-oxazolidine-2,4-dione] showed an IC50 of under 100 nM. `C[C@H](c1ccc(F)cc1)N1C(=O)O[C@](Cc2ccccc2)(c2nc3c(-c4cnoc4)cccc3[nH]2)C1=O` [Compound 30, (5R)-5-Benzyl-3-[(1R)-1-(4-fluorophenyl)ethyl]-5-(4-isoxazol-4-yl-1H-benzimidazol-2-yl)-1,3-oxazolidine-2,4-dione] was tested, and the IC50 was 500 to 2000 nM. For `C[C@H](c1ccc(F)cc1)N1C(=O)O[C@](Cc2ccccc2)(c2nc3c(-c4cnn(C)c4)cccc3[nH]2)C1=O` [Compound 31, (5R)-5-Benzyl-3-[(1R)-1-(4-fluorophenyl)ethyl]-5-[4-(1-methyl-1H-pyrazol-4-yl)-1H-benzimidazol-2-yl]-1,3-oxazolidine-2,4-dione], the IC50 was 100 to 500 nM. Molecule `C[C@H](c1ccc(F)cc1)N1C(=O)O[C@](Cc2ccccc2)(c2nc3c(-c4ccnn4C)cccc3[nH]2)C1=O` [Compound 32, (5R)-5-Benzyl-3-[(1R)-1-(4-fluorophenyl)ethyl]-5-[4-(1-methyl-1H-pyrazol-5-yl)-1H-benzimidazol-2-yl]-1,3-oxazolidine-2,4-dione] has an IC50 of 100 to 500 nM. `COc1ncccc1-c1cccc2[nH]c([C@@]3(Cc4ccccc4)OC(=O)N([C@H](C)c4ccc(F)cc4)C3=O)nc12` [Compound 33, (5R)-5-Benzyl-3-[(1R)-1-(4-fluorophenyl)ethyl]-5-[4-(2-methoxypyridin-3-yl)-1H-benzimidazol-2-yl]-1,3-oxazolidine-2,4-dione] gave an IC50 of under 100 nM. `C[C@H](c1ccc(F)cc1)N1C(=O)O[C@](Cc2ccccc2)(c2nc3c(-c4ccncc4)cccc3[nH]2)C1=O` [Compound 34, (5R)-5-Benzyl-3-[(1R)-1-(4-fluorophenyl)ethyl]-5-(4-pyridin-4-yl-1H-benzimidazol-2-yl)-1,3-oxazolidine-2,4-dione] gave an IC50 of 100 to 500 nM. In the case of `C[C@H](c1ccc(F)cc1)N1C(=O)O[C@](Cc2ccccc2)(c2nc3c(-c4cncnc4)cccc3[nH]2)C1=O` [Compound 35, (5R)-5-Benzyl-3-[(1R)-1-(4-fluorophenyl)ethyl]-5-(4-pyrimidin-5-yl-1H-benzimidazol-2-yl)-1,3-oxazolidine-2,4-dione], the IC50 is reported as 100 to 500 nM. With `C[C@H](c1ccc(F)cc1)N1C(=O)O[C@](Cc2ccccc2)(c2nc3c(-c4cccnc4)cccc3[nH]2)C1=O` [Compound 36, (5R)-5-Benzyl-3-[(1R)-1-(4-fluorophenyl)ethyl]-5-(4-pyridin-3-yl-1H-benzimidazol-2-yl)-1,3-oxazolidine-2,4-dione] the IC50 was 100 to 500 nM.
